In ChEMBL document CHEMBL5335776, “Development, validation, and evaluation of a deep learning model to screen cyclin-dependent kinase 12 inhibitors in cancers” (Eur J Med Chem, 2023):

Legend:
[1] = biological target: CDK12/Cyclin K (Homo sapiens, UniProt Q9NYV4); assay: Inhibition of CDK12/Cyclin K (unknown origin) preincubated for 10 mins followed by substrate and ATP addition measured after 200 mins by ADP-Glo luminescence assay; format: protein-complex assay
[2] = biological target: Cyclin-dependent kinase 13/Cyclin-K (Homo sapiens, UniProt Q14004); assay: Inhibition of CDK13/Cyclin K (unknown origin) preincubated for 10 mins followed by substrate and ATP addition measured after 200 mins by ADP-Glo luminescence assay; format: protein-complex assay
Sequence of Cyclin-dependent kinase 13/Cyclin-K (Q14004 whole entry): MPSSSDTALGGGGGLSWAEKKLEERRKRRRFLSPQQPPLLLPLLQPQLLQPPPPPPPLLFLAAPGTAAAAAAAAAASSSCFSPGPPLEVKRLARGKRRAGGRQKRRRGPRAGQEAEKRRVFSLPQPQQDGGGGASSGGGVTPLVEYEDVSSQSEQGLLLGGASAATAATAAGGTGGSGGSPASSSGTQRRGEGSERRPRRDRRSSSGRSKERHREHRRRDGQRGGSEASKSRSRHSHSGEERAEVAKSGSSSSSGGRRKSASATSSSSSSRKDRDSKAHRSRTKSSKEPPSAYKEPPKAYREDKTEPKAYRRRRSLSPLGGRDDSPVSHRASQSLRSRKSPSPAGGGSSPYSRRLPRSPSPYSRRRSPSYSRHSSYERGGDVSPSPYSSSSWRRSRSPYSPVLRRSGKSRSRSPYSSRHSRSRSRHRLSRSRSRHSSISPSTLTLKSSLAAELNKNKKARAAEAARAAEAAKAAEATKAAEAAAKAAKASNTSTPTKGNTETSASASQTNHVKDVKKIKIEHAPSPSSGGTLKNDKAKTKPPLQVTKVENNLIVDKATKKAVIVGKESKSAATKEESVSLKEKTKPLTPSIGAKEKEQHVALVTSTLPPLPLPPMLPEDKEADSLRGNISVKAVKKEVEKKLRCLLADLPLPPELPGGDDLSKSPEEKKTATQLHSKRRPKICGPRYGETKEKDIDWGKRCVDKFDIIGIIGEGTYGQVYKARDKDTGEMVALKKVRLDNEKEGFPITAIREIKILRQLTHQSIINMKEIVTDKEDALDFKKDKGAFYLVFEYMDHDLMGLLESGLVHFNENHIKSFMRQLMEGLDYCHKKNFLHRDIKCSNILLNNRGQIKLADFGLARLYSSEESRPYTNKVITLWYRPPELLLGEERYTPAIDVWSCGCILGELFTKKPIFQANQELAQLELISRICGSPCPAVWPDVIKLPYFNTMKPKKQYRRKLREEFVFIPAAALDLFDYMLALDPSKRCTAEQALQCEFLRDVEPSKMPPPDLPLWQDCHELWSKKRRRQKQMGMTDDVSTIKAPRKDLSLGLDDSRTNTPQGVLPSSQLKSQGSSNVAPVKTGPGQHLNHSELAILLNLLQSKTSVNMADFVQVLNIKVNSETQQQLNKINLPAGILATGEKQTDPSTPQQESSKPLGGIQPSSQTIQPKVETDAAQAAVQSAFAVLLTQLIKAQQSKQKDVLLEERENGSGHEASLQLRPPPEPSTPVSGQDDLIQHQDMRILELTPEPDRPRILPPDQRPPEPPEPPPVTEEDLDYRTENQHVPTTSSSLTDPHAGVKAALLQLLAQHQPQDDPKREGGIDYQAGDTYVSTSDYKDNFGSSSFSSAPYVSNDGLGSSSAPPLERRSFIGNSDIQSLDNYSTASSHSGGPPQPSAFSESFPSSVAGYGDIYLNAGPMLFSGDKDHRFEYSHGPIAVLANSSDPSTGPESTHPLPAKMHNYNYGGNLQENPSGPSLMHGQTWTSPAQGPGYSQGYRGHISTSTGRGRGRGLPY
Sequence of Cyclin-dependent kinase 13/Cyclin-K (O75909 whole entry, further chain): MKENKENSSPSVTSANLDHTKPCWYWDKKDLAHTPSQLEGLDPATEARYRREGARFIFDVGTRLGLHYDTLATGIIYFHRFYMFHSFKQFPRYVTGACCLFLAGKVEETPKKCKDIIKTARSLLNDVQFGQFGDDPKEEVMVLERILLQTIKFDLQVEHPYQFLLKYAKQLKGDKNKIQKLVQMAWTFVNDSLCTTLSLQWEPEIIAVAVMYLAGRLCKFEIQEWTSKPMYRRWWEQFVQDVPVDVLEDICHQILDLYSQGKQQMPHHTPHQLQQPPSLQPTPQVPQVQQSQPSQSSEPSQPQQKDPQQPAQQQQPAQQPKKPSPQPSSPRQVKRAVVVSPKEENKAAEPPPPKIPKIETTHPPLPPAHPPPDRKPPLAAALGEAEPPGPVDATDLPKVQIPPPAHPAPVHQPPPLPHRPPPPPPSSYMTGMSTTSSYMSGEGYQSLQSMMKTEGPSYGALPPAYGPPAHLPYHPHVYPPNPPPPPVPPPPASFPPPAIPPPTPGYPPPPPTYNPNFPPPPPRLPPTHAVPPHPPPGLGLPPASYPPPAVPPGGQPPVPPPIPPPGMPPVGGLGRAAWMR

[3] = biological target: T1, CDK12/Cyclin K (Homo sapiens) (UniProt O75909+Q9NYV4); assay: Inhibition of CDK12/Cyclin K (unknown origin) at 0.1 uM preincubated for 10 mins followed by substrate and ATP addition measured after 200 mins by ADP-Glo luminescence assay relative to control; format: protein-complex assay; settings: time 210.0 min
T1 sequence (O75909 whole entry, looked up): as the sequence (O75909 whole entry, further chain) above
T1 sequence (Q9NYV4 whole entry, looked up): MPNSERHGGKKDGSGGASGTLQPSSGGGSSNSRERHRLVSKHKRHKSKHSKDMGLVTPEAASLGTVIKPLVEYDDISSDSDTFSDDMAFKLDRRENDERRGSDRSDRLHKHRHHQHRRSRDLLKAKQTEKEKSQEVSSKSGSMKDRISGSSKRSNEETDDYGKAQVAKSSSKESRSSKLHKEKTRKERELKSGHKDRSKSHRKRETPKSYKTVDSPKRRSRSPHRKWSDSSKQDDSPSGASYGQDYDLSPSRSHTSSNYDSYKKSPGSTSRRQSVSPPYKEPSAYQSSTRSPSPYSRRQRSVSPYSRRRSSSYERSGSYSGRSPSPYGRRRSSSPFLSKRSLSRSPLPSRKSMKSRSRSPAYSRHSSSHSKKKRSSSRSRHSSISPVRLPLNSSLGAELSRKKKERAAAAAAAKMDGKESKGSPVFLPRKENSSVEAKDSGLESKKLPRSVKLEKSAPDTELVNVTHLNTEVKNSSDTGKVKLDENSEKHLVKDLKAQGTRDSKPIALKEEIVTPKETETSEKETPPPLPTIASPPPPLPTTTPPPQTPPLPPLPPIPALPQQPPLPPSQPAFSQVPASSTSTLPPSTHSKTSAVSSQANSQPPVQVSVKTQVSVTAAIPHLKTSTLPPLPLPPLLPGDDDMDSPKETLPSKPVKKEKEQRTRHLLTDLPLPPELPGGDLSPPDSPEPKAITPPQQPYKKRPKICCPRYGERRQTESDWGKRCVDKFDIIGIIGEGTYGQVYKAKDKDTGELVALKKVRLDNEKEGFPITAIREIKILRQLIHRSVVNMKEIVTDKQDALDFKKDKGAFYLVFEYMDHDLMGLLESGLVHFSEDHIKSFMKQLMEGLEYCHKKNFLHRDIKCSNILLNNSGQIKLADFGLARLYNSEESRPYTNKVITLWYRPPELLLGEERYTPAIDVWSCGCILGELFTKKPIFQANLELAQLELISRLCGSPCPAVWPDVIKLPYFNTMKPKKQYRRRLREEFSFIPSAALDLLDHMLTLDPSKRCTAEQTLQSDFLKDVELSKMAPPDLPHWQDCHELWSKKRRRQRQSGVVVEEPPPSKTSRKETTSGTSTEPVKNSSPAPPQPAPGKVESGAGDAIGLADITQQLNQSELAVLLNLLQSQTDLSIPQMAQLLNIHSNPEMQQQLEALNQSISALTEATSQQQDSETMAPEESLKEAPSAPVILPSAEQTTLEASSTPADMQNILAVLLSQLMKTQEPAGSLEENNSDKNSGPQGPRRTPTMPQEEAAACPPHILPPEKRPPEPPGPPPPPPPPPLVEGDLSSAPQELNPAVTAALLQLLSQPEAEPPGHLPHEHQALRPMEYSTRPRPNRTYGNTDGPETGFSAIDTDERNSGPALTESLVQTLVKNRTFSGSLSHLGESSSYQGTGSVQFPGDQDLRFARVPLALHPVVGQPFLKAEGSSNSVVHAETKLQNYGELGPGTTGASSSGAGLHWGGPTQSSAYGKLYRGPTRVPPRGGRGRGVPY

[4] = biological target: T1, CDK12/Cyclin K (Homo sapiens); assay: Inhibition of CDK12/Cyclin K (unknown origin) at 10 uM preincubated for 10 mins followed by substrate and ATP addition measured after 200 mins by ADP-Glo luminescence assay relative to control; format: protein-complex assay; settings: time 210.0 min
[5] = biological target: T1, CDK12/Cyclin K (Homo sapiens); assay: Inhibition of CDK12/Cyclin K (unknown origin) at 1 uM preincubated for 10 mins followed by substrate and ATP addition measured after 200 mins by ADP-Glo luminescence assay relative to control; format: protein-complex assay; settings: time 210.0 min
[6] = system: BT-474; assay: Cytotoxicity against human BT-474 cells incubated for 48 hrs by CCK-8 reagent microplate reader assay; format: functional, cell-based; settings: BT-474, 48 h

Sequence of CDK12/Cyclin K (O75909 whole entry): as the sequence (O75909 whole entry, further chain) above
Sequence of CDK12/Cyclin K (Q9NYV4 whole entry): as the sequence (Q9NYV4 whole entry, looked up) above

| SMILES | IC50 [1] [nM] | IC50 [2] [nM] | inhibition [3] [%] | inhibition [4] [%] | inhibition [5] [%] | IC50 [6] [nM] |
| --- | --- | --- | --- | --- | --- | --- |
| Cn1ncc(-c2nc(N[C@H]3CC[C@H](N)CC3)ncc2F)c1CC1CC1 | 53 | 21.5 |  |  |  | 11300 |
| Cc1cc(O)c(-c2ccc([C@@H](C)CN)cc2)c2c1[nH]c(=O)c1sccc12 |  |  |  |  |  | 6260 |
| Cn1cc(C2=C(c3cn(CCCSC(=N)N)c4ccccc34)C(=O)NC2=O)c2ccccc21 [BISINDOLYLMALEIMIDE IX] | 143 | 206 |  |  |  |  |
| COc1cc(F)ccc1-c1cc(Nc2cc(C[S@@](C)(=N)=O)ccn2)ncc1F | 425 |  |  |  |  | 853 |

The next lines start with results.

| IC50 [1] [nM] | IC50 [2] [nM] | inhibition [3] [%] | inhibition [4] [%] | inhibition [5] [%] | SMILES | IC50 [6] [nM] |
| --- | --- | --- | --- | --- | --- | --- |
| 152 | 40 | 98.7 | 33 | 96.7 | CN(C)C/C=C/C(=O)Nc1ccc(C(=O)N2CCC[C@@H](Nc3ncc(Cl)c(-c4c[nH]c5ccccc45)n3)C2)cc1 |  |
| 260 | 154 |  |  |  | NCCCNc1ccc(Nc2nccc(Nc3cc(C4CC4)[nH]n3)n2)cc1 | 9110 |
| 74.4 | 29.3 |  |  |  | C=CC(=O)Nc1cccc(Nc2cc(N3CCCC[C@H]3CCO)nc3c(CC)cnn23)c1 | 490 |
| 183 | 187 |  |  |  | CN1CCN(Cc2ccc(NC(=O)c3n[nH]cc3Nc3ncnc4[nH]ccc34)cc2)CC1 | 23900 |
| 749 |  |  |  |  | O=C1CC[C@@H](N2C(=O)c3cccc(OCCCCCOc4ccc(CC(=O)Nc5cc(C6CCC6)[nH]n5)cc4)c3C2=O)C(=O)N1 | 42300 |
